In patent US6462055B2, “Alpha-methylbenzyl-containing thiourea inhibitors of herpes viruses containing a phenylenediamine group” (Wyeth, priority 1998, dated 2002):
≈ marks a conversion by molar mass, not a printed value.

What was measured:
HSV-1 = assay: HSV Antiviral (ELISA) Assay in Vero cells; assay type: cell-based, herpes simplex virus type 1; details: HSV-1, Vero cells; for IC50: Human alphaherpesvirus 1, read-out: IC50 (ug/ml) HSV
Summary of the method: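 Viral replication was quantified by cell-fixed ELISA for HSV glycoprotein D, using a β-galactosidase reporter and fluorogenic umbelliferyl substrate, about 24 h after HSV-1 infection (MOI 0.006) of Vero cells. Compounds, at several concentrations, were added 30 min pre-infection. IC50 was derived from fluorescence relative to the compound-free signal.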

VZV strain Ellen = assay: VZV Antiviral (ELISA) Assay in human foreskin fibroblast cells; assay type: cell-based, varicella-zoster virus; details: for IC50 / inhibition at 10 µg/mL: Human alphaherpesvirus 3, Fibroblast; for IC50: read-out: IC50 (ug/ml) VZV; for inhibition at 10 µg/mL: read-out: % inhibition 10 ug/ml VZV, 10 ug/ml
Summary of the method: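 First, fibroblasts are infected at multiplicity below 0.1 and kept overnight. The harvested cell mixture then goes onto compound-containing wells for three days at 37° C. Finally, cells are fixed and viral gpII is measured by fluorogenic ELISA.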

[1] = tested on: HCMV recombinant mutant virus (RV145); assay: microbe, parasite or virus in culture; assay type: cell-based, human cytomegalovirus; details: for IC50: Human betaherpesvirus 5, read-out: IC50 ug/ml HCMV, HCMV
Summary of the method: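 Read-out is beta-glucuronidase activity in cell lysates 96 h after infection, measured colorimetrically or fluorometrically. Reporter virus RV145 expresses the enzyme under a viral promoter in human foreskin fibroblasts treated with inhibitor.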

Row | Compound | IC50 (ug/ml) HSV (HSV-1) | IC50 (ug/ml) VZV (VZV strain Ellen) | % inhibition 10 ug/ml VZV (VZV strain Ellen) | IC50 ug/ml HCMV [1] | IC50 (HSV-1) | IC50 (VZV strain Ellen) | IC50 [1] | inhibition at 10 µg/mL (VZV strain Ellen)
1 | O=C(Nc1ccc(NC(=S)Nc2ccc3scnc3c2)cc1)c1ccccc1F [Example 484] | 0.4 µg/mL (≈ 0.947 µM) | >10 µg/mL | 28% | >10 µg/mL |  |  |  | 
2 | COc1cc(OC)c(NC(=S)Nc2ccc(NC(=O)c3cccc(OCCN4CCOCC4)c3)cc2)cc1Cl [Example 258] | 1.5 µg/mL (≈ 2.63 µM) | 1.5 µg/mL (≈ 2.63 µM) | 92% | 5 µg/mL (≈ 8.76 µM) |  |  |  | 
3 | COc1ccc(NC(=S)Nc2ccc(NC(=O)c3ccccc3F)cc2)cc1F [Example 995, 2-Fluoro-N-{4-[3-(3-fluoro-4-methoxy-phenyl)-thioureido]-phenyl}-benzamide] |  |  |  |  | > 10 µg/mL | > 10 µg/mL | > 10 µg/mL | 
4 | CN1CCC(N(C)c2ccc(NC(=S)Nc3ccc(NC(=O)c4ccccc4F)cc3)cc2Cl)C1 (stereo not drawn) [Example 332] | 1 µg/mL (≈ 1.95 µM) | 8 µg/mL (≈ 15.6 µM) | 90% | 0.9 µg/mL (≈ 1.76 µM) |  |  |  | 
5 | COc1cc(OC)c(NC(=S)Nc2ccc(NC(=O)c3ccccc3F)c(C(=O)c3ccccc3)c2)cc1Cl [Example 293] | >50 µg/mL | >10 µg/mL | 2% | >10 µg/mL |  |  |  | 
6 | COc1ccc(NC(=S)Nc2ccc(NC(=O)c3ccccc3F)cc2)cc1Br [Example 811] | 0.8 µg/mL (≈ 1.69 µM) | >7.5 µg/mL |  | 3.1 µg/mL (≈ 6.54 µM) |  |  |  | 
7 | O=C(Nc1ccc(NC(=S)Nc2ccc(Cl)c(C(F)(F)F)c2)cc1)c1ccccc1F [Example 244] | >10 µg/mL | >10 µg/mL | 18% | >10 µg/mL |  |  |  | 
8 | CC(=O)Oc1ccc(C(=O)Nc2ccc(NC(=S)NC(C)c3ccc(F)cc3)cc2)cc1 (stereo not drawn) [Example 757] | >10 µg/mL | 1.5 µg/mL (≈ 3.32 µM) |  | >10 µg/mL |  |  |  | 
9 | CCOC(=O)Nc1ccc(NC(=S)Nc2ccc(NC(=O)c3ccccc3F)cc2)cc1Cl [Example 399] | >10 µg/mL | >10 µg/mL | 59% | 1.5 µg/mL (≈ 3.08 µM) |  |  |  | 
10 | COc1ccccc1C(C)NC(=S)Nc1ccc(NC(=O)c2ccccc2F)cc1 (stereo not drawn) [Example 788] | >10 µg/mL | >7.5 µg/mL |  | 1.8 µg/mL (≈ 4.25 µM) |  |  |  | 
11 | COc1cc(OC)c(NC(=S)Nc2ccc(NC(=O)c3ccccc3C(F)(F)F)cc2)cc1Cl [Example 138] | 1 µg/mL (≈ 1.96 µM) | >10 µg/mL | 57% | 8 µg/mL (≈ 15.7 µM) |  |  |  | 
12 | COc1cc(C)c(Cl)cc1NC(=S)Nc1ccc(NC(=O)c2c(F)cccc2F)cc1 [Example 333] | 0.04 µg/mL (≈ 0.0866 µM) | 4.5 µg/mL (≈ 9.74 µM) | 92% | 2.5 µg/mL (≈ 5.41 µM) |  |  |  | 
13 | COc1cc(OC)c(NC(=S)Nc2ccc(NC(=O)c3ccccc3C)cc2)cc1Cl [Example 114] | 0.3 µg/mL (≈ 0.658 µM) | >10 µg/mL | 17% | 5 µg/mL (≈ 11 µM) |  |  |  | 
14 | CN(C)c1ccc(Cl)cc1NC(=S)Nc1ccc(NC(=O)c2ccccc2F)cc1 [Example 490] | 1 µg/mL (≈ 2.26 µM) | >10 µg/mL | 68% | 2.5 µg/mL (≈ 5.64 µM) |  |  |  | 
15 | CCN(CC)CC(=O)Nc1ccc(NC(=S)Nc2ccc(NC(=O)c3ccccc3F)cc2)cc1Cl [Example 414] | 6 µg/mL (≈ 11.4 µM) | >15 µg/mL | 70% | >10 µg/mL |  |  |  | 
16 | COc1cccc(C(=O)Nc2ccc(NC(=S)Nc3ccc(N(C)C4CCCCC4)c(Cl)c3)cc2)c1 [Example 250] | >10 µg/mL | >10 µg/mL | 42% | >10 µg/mL |  |  |  | 
17 | COc1cc(OC)c(NC(=S)Nc2ccc(NC(=O)c3cccc(F)c3)cc2)cc1Cl [Example 117] | 0.3 µg/mL (≈ 0.652 µM) | >10 µg/mL | 15% | 3 µg/mL (≈ 6.52 µM) |  |  |  | 
18 | N-{4-[3-(3-Chloro-4-methoxy-phenyl)-thioureido]-phenyl}-4-methoxy-benzamide [Example 821] | 0.15 µg/mL | >10 µg/mL | 55% | 1 µg/mL |  |  |  | 
19 | Cc1ccccc1C(=O)Nc1ccc(NC(=S)Nc2ccc(N(C)C3CCCCC3)c(Cl)c2)cc1 [Example 247] | >10 µg/mL | 5 µg/mL (≈ 9.86 µM) | 74% | >10 µg/mL |  |  |  | 

Row | Compound | IC50 (ug/ml) HSV (HSV-1) | IC50 (ug/ml) VZV (VZV strain Ellen) | % inhibition 10 ug/ml VZV (VZV strain Ellen) | IC50 ug/ml HCMV [1] | IC50 (HSV-1) | IC50 (VZV strain Ellen) | IC50 [1] | inhibition at 10 µg/mL (VZV strain Ellen)
20 | Cc1ccccc1C(=O)Nc1ccc(NC(=S)Nc2ccc(N(C)C3CCN(Cc4ccccc4)C3)c(Cl)c2)cc1 (stereo not drawn) [Example 374] | 3 µg/mL (≈ 5.14 µM) | 4 µg/mL (≈ 6.85 µM) | 70% | 3 µg/mL (≈ 5.14 µM) |  |  |  | 
21 | CC(C)COc1ccc(NC(=S)Nc2ccc(NC(=O)c3ccccc3F)cc2)cc1Cl [Example 994, N-{4-[3-(3-Chloro-4-isobutoxy-phenyl)-thioureido]-phenyl}-2-fluoro-benzamide] |  |  |  |  | > 10 µg/mL | > 10 µg/mL | > 10 µg/mL | 
22 | CC(NC(=S)Nc1ccc(NC(=O)c2ccccc2F)cc1)c1ccc(F)cc1 (stereo not drawn) [Example 591] |  |  |  |  | > 10 µg/mL | 1.5 µg/mL (≈ 3.65 µM) | 7 µg/mL (≈ 17 µM) | 
23 | CC(=O)c1cccc(NC(=S)Nc2ccc(NC(=O)c3ccccc3F)cc2)c1 [Example 965, N-{4-[3-(3-Acetyl-phenyl)-thioureido]-phenyl}-2-fluoro-benzamide] |  |  |  |  | 5 µg/mL (≈ 12.3 µM) | > 10 µg/mL | > 10 µg/mL | 12%
24 | O=C(Nc1ccc(NC(=S)Nc2cccc(C(F)(F)F)c2)cc1)c1ccccc1F [Example 433] | >10 µg/mL | >10 µg/mL | 0% | >10 µg/mL |  |  |  | 
25 | N-{4-[3-(3-Butylsulfonyl-phenyl)-thioureido]-phenyl}-2-fluoro-benzamide [Example 966] | 7 µg/mL | 8 µg/mL | 95% | 2.5 µg/mL |  |  |  | 
26 | Nc1ccc(Cl)cc1NC(=S)Nc1ccc(NC(=O)c2ccccc2F)cc1 [Example 437] | 0.05 µg/mL (≈ 0.121 µM) | 8 µg/mL (≈ 19.3 µM) | 0% | >10 µg/mL |  |  |  | 
27 | CCCCOc1cccc(C(=O)Nc2ccc(NC(=S)Nc3cc(Cl)c(OC)cc3OC)cc2)c1 [Example 219] | 2.5 µg/mL (≈ 4.86 µM) | >10 µg/mL | 30% | >10 µg/mL |  |  |  | 
28 | COc1cc(OC)c(NC(=S)Nc2ccc(NC(=O)c3ccccc3F)cc2)cc1Cl [Example 118] | 0.15 µg/mL (≈ 0.326 µM) | >10 µg/mL |  | 3 µg/mL (≈ 6.52 µM) |  |  |  | 
29 | O=C(Nc1ccc(NC(=S)Nc2ccccc2)cc1)c1ccccc1F [Example 859, 2-Fluoro-N-[4-(3-phenyl-thioureido)-phenyl]-benzamide] |  |  |  |  | > 10 µg/mL | > 10 µg/mL | > 10 µg/mL | 20%
30 | CS(=O)(=O)c1ccc(NC(=S)Nc2ccc(NC(=O)c3c(F)cccc3F)cc2)cc1Cl [Example 393] | >10 µg/mL | >10 µg/mL | 62% | 0.5 µg/mL (≈ 1.01 µM) |  |  |  | 
31 | CC(C)CN(C)c1cc(NC(=S)Nc2ccc(NC(=O)c3ccccc3F)cc2)cc(C(F)(F)F)c1 [Example 596] | >10 µg/mL | >10 µg/mL |  | 2 µg/mL (≈ 3.86 µM) |  |  |  | 
32 | O=C(Nc1ccc(NC(=S)NCCc2ccc(F)cc2)cc1)c1ccccc1F [Example 552] | >10 µg/mL | >10 µg/mL |  | >0.5 µg/mL |  |  |  | 
33 | O=C(CN1CCOCC1)Nc1ccc(NC(=S)Nc2ccc(NC(=O)c3ccccc3F)cc2)cc1Cl [Example 367] | >10 µg/mL | >10 µg/mL | 20% | >10 µg/mL |  |  |  | 
34 | COc1cc(OC)c(NC(=S)Nc2ccc(NC(=O)c3c(F)cccc3F)cc2)cc1Cl [Example 140] | 0.15 µg/mL (≈ 0.314 µM) | 10 µg/mL (≈ 20.9 µM) | 65% | 4 µg/mL (≈ 8.37 µM) |  |  |  | 
35 | CC(NC(=S)Nc1ccc(NC(=O)c2ccccc2F)cc1)c1ccccc1C(F)(F)F (stereo not drawn) [Example 785] |  |  |  |  | > 10 µg/mL | > 7.5 µg/mL | > 2.2 µg/mL | 
36 | COc1cc(OC)c(NC(=S)Nc2ccc(NC(=O)c3ccccc3[S+](C)[O-])cc2)cc1Cl (stereo not drawn) [Example 220] | >10 µg/mL | >10 µg/mL | 35% | >10 µg/mL |  |  |  | 
37 | CCOC(=O)Nc1cccc(C(=O)Nc2ccc(NC(=S)Nc3cc(Cl)c(OC)cc3OC)cc2)c1 [Example 180] | 1.3 µg/mL (≈ 2.46 µM) | >10 µg/mL | 36% | 1.5 µg/mL (≈ 2.84 µM) |  |  |  | 
38 | CC(NC(=S)Nc1ccc(NC(=O)c2ccccc2F)cc1)c1ccccc1 (stereo not drawn) [Example 589] | >10 µg/mL | 0.36 µg/mL (≈ 0.915 µM) |  | 7 µg/mL (≈ 17.8 µM) |  |  |  | 
